Test results from patent US8765773B2, “Substituted hydroxamic acids and uses thereof” (Millennium Pharmaceuticals, Inc., priority 2010, dated 2014).

What follows are compounds tested against T1, purified human HDAC6 (Homo sapiens, UniProt Q9UBN7) (assay: HDAC6 Enzyme Assay). Details: compound concentration 0.37 μM, read-out: Percent Inhibition.
T1 construct: purchased BPS Bioscience 5006
T1 sequence (Q9UBN7 1-1215): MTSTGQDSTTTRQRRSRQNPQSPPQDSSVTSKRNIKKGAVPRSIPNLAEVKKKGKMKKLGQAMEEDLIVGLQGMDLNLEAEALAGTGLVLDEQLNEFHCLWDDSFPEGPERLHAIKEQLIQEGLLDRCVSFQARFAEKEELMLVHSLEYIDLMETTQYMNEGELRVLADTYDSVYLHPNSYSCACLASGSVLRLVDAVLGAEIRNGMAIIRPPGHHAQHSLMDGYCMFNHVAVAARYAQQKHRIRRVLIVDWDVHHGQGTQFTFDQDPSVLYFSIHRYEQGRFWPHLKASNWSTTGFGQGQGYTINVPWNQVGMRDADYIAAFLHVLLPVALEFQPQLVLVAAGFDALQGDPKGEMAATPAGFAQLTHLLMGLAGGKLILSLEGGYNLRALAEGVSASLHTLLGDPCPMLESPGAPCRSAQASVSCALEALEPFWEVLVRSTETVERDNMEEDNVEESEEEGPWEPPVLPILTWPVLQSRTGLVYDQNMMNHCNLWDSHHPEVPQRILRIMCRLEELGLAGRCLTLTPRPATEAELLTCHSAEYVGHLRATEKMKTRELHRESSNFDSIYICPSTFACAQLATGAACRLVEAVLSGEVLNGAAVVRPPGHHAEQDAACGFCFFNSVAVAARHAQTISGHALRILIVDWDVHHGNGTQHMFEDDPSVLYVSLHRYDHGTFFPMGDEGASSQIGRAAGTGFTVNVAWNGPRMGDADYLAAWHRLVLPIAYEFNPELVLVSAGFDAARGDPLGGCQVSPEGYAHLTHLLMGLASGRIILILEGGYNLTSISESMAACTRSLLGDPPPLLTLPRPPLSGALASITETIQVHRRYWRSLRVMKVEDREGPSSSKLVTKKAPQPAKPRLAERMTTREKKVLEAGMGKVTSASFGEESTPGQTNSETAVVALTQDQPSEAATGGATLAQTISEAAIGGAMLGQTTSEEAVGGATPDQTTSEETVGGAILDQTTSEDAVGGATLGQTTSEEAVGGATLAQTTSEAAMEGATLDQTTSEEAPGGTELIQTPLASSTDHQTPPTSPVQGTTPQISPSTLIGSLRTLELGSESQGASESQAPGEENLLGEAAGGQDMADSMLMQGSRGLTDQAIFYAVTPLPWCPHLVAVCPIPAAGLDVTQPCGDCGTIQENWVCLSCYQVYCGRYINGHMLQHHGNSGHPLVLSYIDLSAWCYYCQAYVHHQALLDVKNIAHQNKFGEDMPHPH
Format: biochemical
Experimental: To measure the inhibition of HDAC6 activity, purified human HDAC6 (BPS Bioscience; Cat. No. 5006) is incubated with substrate Ac-Arg-Gly-Lys(Ac)-AMC peptide (Bachem Biosciences; Cat. No. I-1925) for 1 hour at 30° C. in the presence of test compounds or vehicle DMSO control. The reaction is stopped with the HDAC inhibitor trichostatin A (Sigma; Cat. No. T8552) and the amount of Arg-Gly-Lys-AMC generated is quantitated by digestion with trypsin (Sigma; Cat. No. T1426) and subsequent measurement of the amount of AMC released using a fluorescent plate reader (Pherastar; BMG Technologies) set at Ex 340 nm and Em 460 nm. Concentration response curves are generated by calculating the fluorescence increase in test compound-treated samples relative to DMSO-treated controls, and percentage inhibition values at a single concentration or enzyme inhibition (IC50) values are determined from those curves. One skilled in the art will appreciate that the values generated either as percentage inhibition at a single concentration or IC50 values are subject to experimental variation.

Row | SMILES | inhibition at 0.37 µM [%]
1 | O=C(NO)c1ccc2c(=O)[nH]c(C3CCCCC3)nc2c1 [Compound I-416, 2-cyclohexyl-N-hydroxy-4-oxo-3,4-dihydroquinazoline-7-carboxamide] | 90
2 | CC(c1ccccc1C(F)(F)F)n1ccc2ccc(C(=O)NO)cc2c1=O (stereo not drawn) [Compound I-224, N-hydroxy-1-oxo-2-{1-[2-(trifluoromethyl)phenyl]ethyl}-1,2-dihydroisoquinoline-7-carboxamide] | 96.3
3 | CS(=O)(=O)Nc1cccc(Cn2cnc3ccc(C(=O)NO)cc3c2=O)c1 [Compound I-200, N-hydroxy-3-{3-[(methylsulfonyl)amino]benzyl}-4-oxo-3,4-dihydroquinazoline-6-carboxamide] | 93.3
4 | O=C(NO)c1ccc2c(=O)n(Cc3ccc(C(F)(F)F)cc3)c(C3CCCC3)nc2c1 [Compound I-106, 2-cyclopentyl-N-hydroxy-4-oxo-3-[4-(trifluoromethyl)benzyl]-3,4-dihydroquinazoline-7-carboxamide] | 78.5
5 | CC(=O)Nc1ccc(-c2cccc(CCn3cnc4ccc(C(=O)NO)cc4c3=O)c2)cc1 [Compound I-334, 3-{2-[4′-(acetylamino)biphenyl-3-yl]ethyl}-N-hydroxy-4-oxo-3,4-dihydroquinazoline-6-carboxamide] | 93.8
6 | COc1ccc(-c2cccc(CCn3cnc4ccc(C(=O)NO)cc4c3=O)c2)cn1 [Compound I-329, N-hydroxy-3-{2-[3-(6-methoxypyridin-3-yl)phenyl]ethyl}-4-oxo-3,4-dihydroquinazoline-6-carboxamide] | 92.6

The next lines start with the values.

Row | inhibition at 0.37 µM [%] | SMILES
7 | 92 | O=C(NO)c1ccc2c(=O)[nH]c(-c3ccc4ccccc4c3)nc2c1 [Compound I-405, N-hydroxy-2-(2-naphthyl)-4-oxo-3,4-dihydroquinazoline-7-carboxamide]
8 | 99.5 | O=C(NO)c1ccc2ccn(Cc3cccc(-n4ncc5ccccc54)c3)c(=O)c2c1 [Compound I-137, N-hydroxy-2-[3-(1H-indazol-1-yl)benzyl]-1-oxo-1,2-dihydroisoquinoline-7-carboxamide]
9 | 93.2 | O=C(NO)c1ccc2ncn(Cc3cccc(-c4cc5ccccc5s4)c3)c(=O)c2c1 [Compound I-268, 3-[3-(1-benzothien-2-yl)benzyl]-N-hydroxy-4-oxo-3,4-dihydroquinazoline-6-carboxamide]
10 | 61.8 | CCn1nccc1-c1nc2cc(C(=O)NO)ccc2c(=O)[nH]1 [Compound I-399, 2-(1-ethyl-1H-pyrazol-5-yl)-N-hydroxy-4-oxo-3,4-dihydroquinazoline-7-carboxamide]
11 | 93.2 | Nc1cccc(-c2cccc(Cn3cnc4ccc(C(=O)NO)cc4c3=O)c2)c1 [Compound I-177, 3-[(3′-aminobiphenyl-3-yl)methyl]-N-hydroxy-4-oxo-3,4-dihydroquinazoline-6-carboxamide]

Same assay, conditions: compound concentration 0.412 μM, read-out: Percent Inhibition

Row | SMILES | inhibition at 0.412 µM [%]
12 | O=C(NO)c1ccc2ccn(C3CCCCCC3)c(=O)c2c1 [Compound I-117, 2-cycloheptyl-N-hydroxy-1-oxo-1,2-dihydroisoquinoline-7-carboxamide] | 93.3
13 | Cn1c(=O)[nH]c2cc(C(=O)NO)ccc2c1=O [Compound I-286, N-hydroxy-3-methyl-2,4-dioxo-1,2,3,4-tetrahydroquinazoline-7-carboxamide] | 21.2
14 | O=C(NO)c1ccc2ccn(CCOc3ccc(-c4csnn4)cc3)c(=O)c2c1 [Compound I-189, N-hydroxy-1-oxo-2-{2-[4-(1,2,3-thiadiazol-4-yl)phenoxy]ethyl}-1,2-dihydroisoquinoline-7-carboxamide] | 97.2
15 | O=C(NO)c1ccc2ccn(Cc3ccc(C(F)(F)F)cc3C(F)(F)F)c(=O)c2c1 [Compound I-78, 2-[2,4-bis(trifluoromethyl)benzyl]-N-hydroxy-1-oxo-1,2-dihydroisoquinoline-7-carboxamide] | 92.9
16 | CCC(CC)Cn1ccc2ccc(C(=O)NO)cc2c1=O [Compound I-130, 2-(2-ethylbutyl)-N-hydroxy-1-oxo-1,2-dihydroisoquinoline-7-carboxamide] | 93
17 | O=C(NO)c1ccc2ccn(Cc3cccc(OC(F)(F)F)c3)c(=O)c2c1 [Compound I-14, N-hydroxy-1-oxo-2-[3-(trifluoromethoxy)benzyl]-1,2-dihydroisoquinoline-7-carboxamide] | 95.1
18 | O=C(NO)c1ccc2ccn(Cc3cc(F)cc(F)c3)c(=O)c2c1 [Compound I-119, 2-(3,5-difluorobenzyl)-N-hydroxy-1-oxo-1,2-dihydroisoquinoline-7-carboxamide] | 95.5
19 | O=C(NO)c1ccc2ccn(Cc3ccccc3C(F)(F)F)c(=O)c2c1 [Compound I-172, N-hydroxy-1-oxo-2-[2-(trifluoromethyl)benzyl]-1,2-dihydroisoquinoline-7-carboxamide] | 94.5
20 | O=C(NO)c1ccc2ncn(Cc3ccc(C(F)(F)F)cc3)c(=O)c2c1 [Compound I-30, N-hydroxy-4-oxo-3-[4-(trifluoromethyl)benzyl]-3,4-dihydroquinazoline-6-carboxamide] | 93.6
21 | O=C(NO)c1ccc2[nH]c(=O)n(Cc3ccccc3)c(=O)c2c1 [Compound I-264, 3-benzyl-N-hydroxy-2,4-dioxo-1,2,3,4-tetrahydroquinazoline-6-carboxamide] | 93
22 | O=C(NO)c1ccc2ccn(C(c3ccccc3)c3ccccc3)c(=O)c2c1 [Compound I-19, 2-(diphenylmethyl)-N-hydroxy-1-oxo-1,2-dihydroisoquinoline-7-carboxamide] | 94.4
23 | O=C(NO)c1ccc2ncn(Cc3cccc(C(F)(F)F)c3)c(=O)c2c1 [Compound I-185, N-hydroxy-4-oxo-3-[3-(trifluoromethyl)benzyl]-3,4-dihydroquinazoline-6-carboxamide] | 95.5
24 | COc1ccc(OCCCn2ccc3ccc(C(=O)NO)cc3c2=O)cc1 [Compound I-3, N-hydroxy-2-[3-(4-methoxyphenoxy)propyl]-1-oxo-1,2-dihydroisoquinoline-7-carboxamide] | 95.8
25 | O=C(NO)c1ccc2ncn(Cc3ccc(C(F)(F)F)cc3C(F)(F)F)c(=O)c2c1 [Compound I-147, 3-[2,4-bis(trifluoromethyl)benzyl]-N-hydroxy-4-oxo-3,4-dihydroquinazoline-6-carboxamide] | 93.2

The remaining lines, values ahead:

Row | inhibition at 0.412 µM [%] | SMILES
26 | 89.7 | O=C(NO)c1ccc2ccn(Cc3cccc4cccnc34)c(=O)c2c1 [Compound I-83, N-hydroxy-1-oxo-2-(quinolin-8-ylmethyl)-1,2-dihydroisoquinoline-7-carboxamide]
27 | 86.2 | O=C(NO)c1ccc2c(=O)n(Cc3ccccc3)c(NCc3ccc(Cl)cc3)nc2c1 [Compound I-238, 3-benzyl-2-[(4-chlorobenzyl)amino]-N-hydroxy-4-oxo-3,4-dihydroquinazoline-7-carboxamide]
28 | 85 | CC(C)n1c(-c2ccccc2)nc2cc(C(=O)NO)ccc2c1=O [Compound I-9, N-hydroxy-3-isopropyl-4-oxo-2-phenyl-3,4-dihydroquinazoline-7-carboxamide]
29 | 76.7 | O=C(NO)c1ccc2c(=O)[nH]c(COc3cc(Cl)cc(Cl)c3)nc2c1 [Compound I-145, 2-[(3,5-dichlorophenoxy)methyl]-N-hydroxy-4-oxo-3,4-dihydroquinazoline-7-carboxamide]
30 | 91.1 | O=C(NO)c1ccc2c(=O)[nH]c(COc3ccccc3-n3cccc3)nc2c1 [Compound I-233, N-hydroxy-4-oxo-2-{[2-(1H-pyrrol-1-yl)phenoxy]methyl}-3,4-dihydroquinazoline-7-carboxamide]
